Measured values from US10906901B2, “Crystal form and salt form of N-phenyl-2-aminopyrimidine compound, and preparation method therefor” (HAINAN YUEKANG BIOMEDICINES CO., LTD., priority 2017, dated 2021).
In brackets after ≈: the same amount, converted by molar mass.

Experiments:
EGFR = EGFR (Homo sapiens, UniProt P00533); conditions: described in Chinese Patent Application 201610679161.7; cited from earlier work
[1] = Accelerated stability test; format: physicochemical
[2] = Dynamic Vapor Sorption (DVS); format: physicochemical
physchem = conditions: thermodynamic from solid
Experimental: Subsequently, 2 mL of buffer solutions at pH 1.2 and 6.8 were added respectively to prepare a saturated solution. The above resulting suspensions were placed in a shaker and shaken at a speed of 200 rpm for 2 hours at 25° C. The resulting mixtures were filtered, and the filtrates were diluted by an appropriate multiple and analyzed by HPLC to determine the solubility of each sample in different media.

[3] = tested on: cells with single or double EGFR mutations; conditions: described in Chinese Patent Application 201610679161.7; cited from earlier work
[4] = Bioavailability assay, single oral dose of capsules in Beagle dogs; conditions: single oral dose 3 mg/kg, crystalline powders in capsules

EGFR, sequence (P00533 25-1210): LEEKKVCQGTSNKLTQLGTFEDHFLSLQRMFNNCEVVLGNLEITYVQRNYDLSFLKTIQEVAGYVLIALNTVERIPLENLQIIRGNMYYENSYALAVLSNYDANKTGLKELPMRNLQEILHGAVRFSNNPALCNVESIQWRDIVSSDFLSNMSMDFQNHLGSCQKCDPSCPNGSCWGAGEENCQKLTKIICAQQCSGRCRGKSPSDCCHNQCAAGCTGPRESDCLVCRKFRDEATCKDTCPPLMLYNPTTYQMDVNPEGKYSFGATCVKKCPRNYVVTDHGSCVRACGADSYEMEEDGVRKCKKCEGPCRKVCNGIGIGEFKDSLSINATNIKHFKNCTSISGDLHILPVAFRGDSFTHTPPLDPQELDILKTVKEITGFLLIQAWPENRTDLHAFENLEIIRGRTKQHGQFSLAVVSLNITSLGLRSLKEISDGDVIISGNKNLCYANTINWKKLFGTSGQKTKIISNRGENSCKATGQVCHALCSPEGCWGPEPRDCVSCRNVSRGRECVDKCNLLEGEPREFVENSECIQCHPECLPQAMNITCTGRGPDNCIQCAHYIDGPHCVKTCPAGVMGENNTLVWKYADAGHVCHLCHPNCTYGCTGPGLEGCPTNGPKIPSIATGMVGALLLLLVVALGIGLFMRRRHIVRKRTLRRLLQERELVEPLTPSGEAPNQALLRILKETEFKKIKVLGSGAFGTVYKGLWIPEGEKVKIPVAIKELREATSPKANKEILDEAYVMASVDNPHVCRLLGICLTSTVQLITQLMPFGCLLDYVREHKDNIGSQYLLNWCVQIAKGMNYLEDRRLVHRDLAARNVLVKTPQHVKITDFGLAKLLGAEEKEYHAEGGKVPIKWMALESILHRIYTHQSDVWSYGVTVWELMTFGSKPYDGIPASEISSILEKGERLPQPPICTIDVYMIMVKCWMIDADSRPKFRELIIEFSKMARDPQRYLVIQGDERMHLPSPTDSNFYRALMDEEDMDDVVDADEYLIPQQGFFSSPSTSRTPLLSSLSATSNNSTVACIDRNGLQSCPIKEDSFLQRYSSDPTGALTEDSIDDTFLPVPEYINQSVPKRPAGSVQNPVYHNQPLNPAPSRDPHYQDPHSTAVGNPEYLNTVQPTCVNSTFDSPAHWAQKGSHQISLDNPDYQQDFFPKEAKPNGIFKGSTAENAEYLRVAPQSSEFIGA

| crystal structure after the accelerated stability test [1] | chemical stability ([1]; when avoiding the light) | hygroscopicity ([2]; DVS curve at 25° C.) | moisture absorption ([2]; at 80% RH) [%] | solubility at 2 h (physchem; buffer solution pH 1.2, 25 °C, pH 1.2, simulated gastric fluid) [mg/mL] | solubility at 2 h (physchem; buffer solution pH 6.8, 25 °C, pH 6.8, aqueous buffer) [mg/mL] | Compound | inhibitory activity against EGFR (EGFR) | selectivity to EGFR mutants (EGFR) | inhibitory activity on cells with single or double EGFR mutations [3] | AUC(0-t) [4] [ng·h/mL] | Cmax [4] [ng/mL] | peak time Tmax [4] [h] |
| --- | --- | --- | --- | --- | --- | --- | --- | --- | --- | --- | --- | --- |
| does not change | good chemical stability | almost no hygroscopicity | 0.934 | 38.1 (≈ 76.1 mM) | 6.75 (≈ 13.5 mM) | C=CC(=O)Nc1cc(Nc2nccc(-c3cnc4c(C)cccn34)n2)c(OC)cc1N(C)CCN(C)C [Compound 1, N-(2-methoxy-4-(N^1,N^2,N^2-trimethyl-1,2-ethylenediamine-1-yl)-5-acrylamidephenyl)-4-(8-methylimidazo[1,2-a]pyridin-3-yl)pyrimidin-2-amine] | significant inhibitory activity | high selectivity | strong inhibitory activity | – | – | – |
| – | – | – | – | – | – | Benzoate | – | – | – | 856.41 | 203.15 | 2 |
